The text below walks through data of patent US8124626B2, “Methods of treating inflammations and infections with pyridinium salts” (Mycosol, Inc., priority 2007, dated 2012).

One data set has as its system Candida tropicalis. The conditions noted are these: Mueller-Hinton agar, 24 hours at 35° C.
For another data set, the system named is E. coli. The conditions noted are these: Mueller-Hinton agar, 24 hours at 35° C.
In another data set the test system is Saccharomyces cervisciae. As to conditions: Mueller-Hinton agar, 24 hours at 35° C.
The test system of a further data set is Vibrio cholerae. As to conditions: Mueller-Hinton agar, 24 hours at 35° C.
The subject of another data set is Cryptococcus neoformans. The conditions noted are these: Mueller-Hinton agar, 24 hours at 35° C.
For another data set, the system named is Streptococcus faecalis. As to conditions: Mueller-Hinton agar, 24 hours at 35° C.
A further data set has as its system Trichophyton rubrum. As to conditions: Mueller-Hinton agar, 24 hours at 35° C.
A further data set has as its system Pasturella multocida. The conditions noted are these: Mueller-Hinton agar, 24 hours at 35° C.
Another data set deals with Aspergillus fumigatus. As to conditions: Mueller-Hinton agar, 24 hours at 35° C.
The next data set deals with Aspergillus flavus. As to conditions: Mueller-Hinton agar, 24 hours at 35° C.
For data set [1] the following is noted: as compared to the iodide salt.
The test system of a further data set is Epidermophyton floccsum. The conditions noted are these: Mueller-Hinton agar, 24 hours at 35° C.
The test system of the next data set is Rhizopus arrihizus. As to conditions: Mueller-Hinton agar, 24 hours at 35° C.
Another data set has as its system Streptococcus algalactia. The conditions noted are these: Mueller-Hinton agar, 24 hours at 35° C.
The test system of the next data set is Bordella bronchiseptica. The conditions noted are these: Mueller-Hinton agar, 24 hours at 35° C.
A further data set concerns Microsporidium gypseum. The conditions noted are these: Mueller-Hinton agar, 24 hours at 35° C.
The next data set concerns Candida albicans. The conditions noted are these: Mueller-Hinton agar, 24 hours at 35° C.
The next data set deals with Trichophyton equinium. The conditions noted are these: Mueller-Hinton agar, 24 hours at 35° C.
Data set [2] deals with Trichophyton mentagrophyt. As to conditions: Mueller-Hinton agar, 24 hours at 35° C.
The next data set concerns Staphylococcus aureus. As to conditions: Mueller-Hinton agar, 24 hours at 35° C.
Another data set deals with Microsporidium canis. As to conditions: Mueller-Hinton agar, 24 hours at 35° C.
The next data set concerns Pseudomonas aerugenosa. The conditions noted are these: Mueller-Hinton agar, 24 hours at 35° C.
For the next data set, the system named is Streptococcus pyogenes. The conditions noted are these: Mueller-Hinton agar, 24 hours at 35° C.
The test system of a further data set is Fusarium solani. The conditions noted are these: Mueller-Hinton agar, 24 hours at 35° C.
In data set [3] the test system is roundworms, threadworms, and whipworms. As to conditions: reported; U.S. Pat. No. 3,075,975 and 3,085,935; cited from earlier work.
For a further data set, the system named is Phytophthora infestans. As to conditions: Plant relevance: Tomato; 18° C. for 7 days, optical density 405 nm.
A further data set relates to Rhizoctonia solani. Briefly: Plant relevant mold panel, microtiter growth inhibition. It is filed as cell-based. The conditions noted are these: Plant relevance: Rice Sheath; 18° C. for 7 days, optical density 405 nm.
The test system of the next data set is Botrytis cinerea. The data set is described as above. It is filed as cell-based. The conditions noted are these: Plant relevance: Vegetable; 18° C. for 7 days, optical density 405 nm.
The subject of the next data set is Pyrenophora teres. The data set is described as above. It counts as cell-based. The conditions noted are these: Plant relevance: Barley; 18° C. for 7 days, optical density 405 nm.
The subject of data set [4] is Colletotrichum lagenarium. The data set is described as above. It is filed as cell-based. The conditions noted are these: Plant relevance: Mellons; 18° C. for 7 days, optical density 405 nm.
A further data set relates to Pyricularia oryzae. The conditions noted are these: Plant relevance: Rice; 18° C. for 7 days, optical density 405 nm.
The next data set concerns Septonia tritici. Briefly: Plant relevant mold panel, microtiter growth inhibition. It is filed as cell-based. The conditions noted are these: Plant relevance: Wheat Leaf; 18° C. for 7 days, optical density 405 nm.

“1-Ethyl-(E,E)-2,6-bis[2-[4-(pyrrolidinyl)phenyl]ethenyl]pyridinium Chloride [formula I]”: the minimum inhibitory concentration (MIC) was less than 0.4 µg/mL in the data set with Candida tropicalis; more than 100 µg/mL in the data set on E. coli; less than 0.4 µg/mL in the data set with Saccharomyces cervisciae; 10.0 µg/mL with Vibrio cholerae; less than 0.4 µg/mL with Cryptococcus neoformans; 1.0 µg/mL in the data set with Streptococcus faecalis. The MIC against Trichophyton rubrum is 1.6 µg/mL; in the data set on Pasturella multocida, 3.0 µg/mL; against Aspergillus fumigatus it was less than 0.006 µg/mL; with Aspergillus flavus, 6.25 µg/mL; against Epidermophyton floccsum it was 1.6 µg/mL; in the data set on Rhizopus arrihizus it was 6.25 µg/mL. The minimum inhibitory concentration (MIC) against Streptococcus algalactia is 1.0 µg/mL; against Bordella bronchiseptica, 1.0 µg/mL; in the data set with Microsporidium gypseum, 1.6 µg/mL; with Candida albicans, less than 0.006 µg/mL; against Trichophyton equinium it was 1.6 µg/mL; in data set [2] it was 1.6 µg/mL. In addition, the minimum inhibitory concentration (MIC) with Staphylococcus aureus was 0.3 µg/mL; in the data set with Microsporidium canis, 1.6 µg/mL; with Pseudomonas aerugenosa, more than 100 µg/mL; in the data set on Streptococcus pyogenes, 1.0 µg/mL; in the data set on Fusarium solani, less than 0.4 µg/mL. Besides, the stability result in data set [1] is listed as “increased stability”.

Consider `CC[n+]1c(/C=C/c2ccc(N3CCCC3)cc2)cccc1/C=C/c1ccc(N2CCCC2)cc1.[I-]` [Stilbazium iodide], for which, in data set [3], the anthelmintic effectiveness result was “effective against roundworms, threadworms, and whipworms”. In addition, the IC90 came out at 2 ppm a.i in the data set on Phytophthora infestans; 2 ppm a.i in the data set on Rhizoctonia solani; 0.5 ppm a.i with Botrytis cinerea; 31 ppm a.i in the data set on Pyrenophora teres; 31 ppm a.i in data set [4]; 8 ppm a.i with Pyricularia oryzae. Further, in the data set on Septonia tritici, the IC90 is on record as 2 ppm a.i.
